Results reported in patent publication US9833497B2, “Human originated EGF domain proteins and use of the same” (CHENGDU SOURCEBIO LIMITED-LIABILITY COMPANY, priority 2013, dated 2017).

What was measured:
Assay type in all cases: cell-based
Proteus vulgaris = assay: MIC against Gram-negative bacteria: Proteus vulgaris
In short: (§1)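 LB broth cultures at McFarland 0.5, spun down, resuspended, diluted to 5×10^5 CFU/mL final. Two-fold serial dilutions of purified human EGF domain proteins, triplicate. 37° C, 175 rpm shaking. Endpoint: no visible growth.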

Citrobacter diversus = assay: MIC against Gram-negative bacteria: Citrobacter diversus
In short: as §1

Proteus mirabilis = assay: MIC against Gram-negative bacteria: Proteus mirabilis
In short: as §1

Serratia marcescens = assay: MIC against Gram-negative bacteria: Serratia marcescens
In short: as §1

Enterobacter cloacae = assay: MIC against Gram-negative bacteria: Enterobacter cloacae
In short: as §1

E. coli DH5α = assay: Antibacterial activity: MIC and growth curve against E. coli DH5α in 96-well plate; details: minimal inhibitory concentration against E. coli DH5α; 96-well plate, 5×10^5 CFU/mL, 37° C., judged after 8 h
In short: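 Log-phase DH5α (OD600 about 0.5, 37° C, 185 rpm in LB) was pelleted, resuspended in fresh LB and seeded at 5×10^5 CFU/mL with recombinant protein at 50, 25 and 12.5 μg/mL (two-fold series), in triplicate. Plates were shaken at 175 rpm, 37° C, and OD600 was read every 30 min. MIC was the lowest concentration with no growth.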

Pseudomonas aeruginosa = assay: MIC against Gram-negative bacteria: Pseudomonas aeruginosa
In short: as §1

Klebsiella pneumonia = assay: MIC against Gram-negative bacteria: Klebsiella pneumonia
In short: as §1

Aeromonas hydrophila = assay: MIC against Gram-negative bacteria: Aeromonas hydrophila
In short: as §1

E. coli BL21 = assay: MIC against Gram-negative bacteria: E. coli BL21
In short: as §1

Moraxella catarrhalis = assay: MIC against Gram-negative bacteria: Moraxella catarrhalis
In short: as §1

[1] = P. vulgaris, 10 h cultivation at 37° C., 5×10^5 CFU/mL
[2] = C. diversus, 10 h cultivation at 37° C., 5×10^5 CFU/mL
[3] = P. mirabilis, 10 h cultivation at 37° C., 5×10^5 CFU/mL
[4] = S. marcescens, 10 h cultivation at 37° C., 5×10^5 CFU/mL
[5] = E. cloacae, 10 h cultivation at 37° C., 5×10^5 CFU/mL
[6] = P. aeruginosa, 10 h cultivation at 37° C., 5×10^5 CFU/mL
[7] = K. pneumonia, 10 h cultivation at 37° C., 5×10^5 CFU/mL
[8] = A. hydrophila, 10 h cultivation at 37° C., 5×10^5 CFU/mL
[9] = E. coli BL21, 10 h cultivation at 37° C., 5×10^5 CFU/mL
[10] = M. catarrhalis, 10 h cultivation at 37° C., 5×10^5 CFU/mL
[11] = 96-well plate, 5×10^5 CFU/mL, 37° C., 10 h
[12] = Proteus vulgaris, 96-well plate, 5×10^5 CFU/mL, 37° C., 10 h
[13] = Citrobacter diversus, 96-well plate, 5×10^5 CFU/mL, 37° C., 10 h
[14] = Proteus mirabilis, 96-well plate, 5×10^5 CFU/mL, 37° C., 10 h
[15] = Serratia marcescens, 96-well plate, 5×10^5 CFU/mL, 37° C., 10 h
[16] = Enterobacter cloacae, 96-well plate, 5×10^5 CFU/mL, 37° C., 10 h
[17] = Pseudomonas aeruginosa, 96-well plate, 5×10^5 CFU/mL, 37° C., 10 h
[18] = Klebsiella pneumonia, 96-well plate, 5×10^5 CFU/mL, 37° C., 10 h
[19] = Aeromonas hydrophila, 96-well plate, 5×10^5 CFU/mL, 37° C., 10 h
[20] = E. coli BL21, 96-well plate, 5×10^5 CFU/mL, 37° C., 10 h
[21] = Moraxella catarrhalis, 96-well plate, 5×10^5 CFU/mL, 37° C., 10 h
[22] = 10 h cultivation at 37° C., 5×10^5 CFU/mL, two-fold serial dilution
[23] = P. vulgaris, 10 h cultivation at 37° C.
[24] = C. diversus, 10 h cultivation at 37° C.
[25] = P. mirabilis, 10 h cultivation at 37° C.
[26] = S. marcescens, 10 h cultivation at 37° C.
[27] = E. cloacae, 10 h cultivation at 37° C.
[28] = P. aeruginosa, 10 h cultivation at 37° C.
[29] = K. pneumonia, 10 h cultivation at 37° C.
[30] = A. hydrophila, 10 h cultivation at 37° C.
[31] = E. coli BL21, 10 h cultivation at 37° C.
[32] = M. catarrhalis, 10 h cultivation at 37° C.

PRT430 (DIDECAQGAGILCTFRCLNVPGSYQCACPEQGYTMTANGRSCK; listed as Homo sapiens)
MIC (Proteus vulgaris; [1]): 50 µg/mL
MIC (Citrobacter diversus; [2]): 50 µg/mL
MIC (Proteus mirabilis; [3]): 12.5 µg/mL
MIC (Serratia marcescens; [4]): 12.5 µg/mL
MIC (Enterobacter cloacae; [5]): 12.5 µg/mL
MIC (E. coli DH5α): 12.5 µg/mL
MIC (Pseudomonas aeruginosa; [6]): 50 µg/mL
MIC (Klebsiella pneumonia; [7]): 25 µg/mL
MIC (Aeromonas hydrophila; [8]): 25 µg/mL
MIC (E. coli BL21; [9]): 25 µg/mL
MIC (Moraxella catarrhalis; [10]): 25 µg/mL

PRT148 (LTDICSVSNGGCHPDASCSSTLGSLPLCTCLPGYTGN; listed as Homo sapiens)
MIC (μg/mL) P. vulgaris (Proteus vulgaris; [1]): 12.5 µg/mL
MIC (μg/mL) C. diversus (Citrobacter diversus; [2]): 50 µg/mL
MIC (μg/mL) P. mirabilis (Proteus mirabilis; [3]): 50 µg/mL
MIC (μg/mL) S. marcescens (Serratia marcescens; [4]): 50 µg/mL
MIC (μg/mL) E. cloacae (Enterobacter cloacae; [5]): 50 µg/mL
MIC (E. coli DH5α): 25 µg/mL
MIC (μg/mL) P. aeruginosa (Pseudomonas aeruginosa; [6]): 25 µg/mL
MIC (μg/mL) K. pneumonia (Klebsiella pneumonia; [7]): 12.5 µg/mL
MIC (μg/mL) A. hydrophila (Aeromonas hydrophila; [8]): 12.5 µg/mL
MIC (μg/mL) E. coli BL21 (E. coli BL21; [9]): 50 µg/mL
MIC (μg/mL) M. catarrhalis (Moraxella catarrhalis; [10]): 12.5 µg/mL

PRT1381 (GMRSCPRGCSQRGRCENGRCVCNPGYTGEDC; listed as Homo sapiens)
MIC against P. vulgaris (Proteus vulgaris; Proteus vulgaris, 5×10^5 CFU/mL, 10 h cultivation at 37° C.): 50 µg/mL
MIC against C. diversus (Citrobacter diversus; Citrobacter diversus, 5×10^5 CFU/mL, 10 h cultivation at 37° C.): 25 µg/mL
MIC against P. mirabilis (Proteus mirabilis; Proteus mirabilis, 5×10^5 CFU/mL, 10 h cultivation at 37° C.): 25 µg/mL
MIC against S. marcescens (Serratia marcescens; Serratia marcescens, 5×10^5 CFU/mL, 10 h cultivation at 37° C.): 25 µg/mL
MIC against E. cloacae (Enterobacter cloacae; Enterobacter cloacae, 5×10^5 CFU/mL, 10 h cultivation at 37° C.): 12.5 µg/mL
MIC (E. coli DH5α): 12.5 µg/mL
MIC against P. aeruginosa (Pseudomonas aeruginosa; Pseudomonas aeruginosa, 5×10^5 CFU/mL, 10 h cultivation at 37° C.): 50 µg/mL
MIC against K. pneumonia (Klebsiella pneumonia; Klebsiella pneumonia, 5×10^5 CFU/mL, 10 h cultivation at 37° C.): 25 µg/mL
MIC against A. hydrophila (Aeromonas hydrophila; Aeromonas hydrophila, 5×10^5 CFU/mL, 10 h cultivation at 37° C.): 50 µg/mL
MIC against E. coli BL21 (E. coli BL21; E. coli BL21, 5×10^5 CFU/mL, 10 h cultivation at 37° C.): 25 µg/mL
MIC against M. catarrhalis (Moraxella catarrhalis; Moraxella catarrhalis, 5×10^5 CFU/mL, 10 h cultivation at 37° C.): 12.5 µg/mL

PRT649 (DVDECLEPNVCANGDCSNLEGSYMCSCHKGYTRTPDHKHCR; listed as Homo sapiens)
MIC P. vulgaris (Proteus vulgaris; [11]): 50 µg/mL
MIC C. diversus (Citrobacter diversus; [11]): 50 µg/mL
MIC P. mirabilis (Proteus mirabilis; [11]): 25 µg/mL
MIC S. marcescens (Serratia marcescens; [11]): 25 µg/mL
MIC E. cloacae (Enterobacter cloacae; [11]): 50 µg/mL
MIC (E. coli DH5α): 50 µg/mL
MIC P. aeruginosa (Pseudomonas aeruginosa; [11]): 50 µg/mL
MIC K. pneumonia (Klebsiella pneumonia; [11]): 12.5 µg/mL
MIC A. hydrophila (Aeromonas hydrophila; [11]): 12.5 µg/mL
MIC E. coli BL21 (E. coli BL21; [11]): 12.5 µg/mL
MIC M. catarrhalis (Moraxella catarrhalis; [11]): 12.5 µg/mL

PRT194 (CRSKCHGHGVCDSNRHCYCEEGWAPPDCT; listed as Homo sapiens)
MIC (μg/mL) P. vulgaris (Proteus vulgaris; [1]): 25 µg/mL
MIC (μg/mL) C. diversus (Citrobacter diversus; [2]): 12.5 µg/mL
MIC (μg/mL) P. mirabilis (Proteus mirabilis; [3]): 100 µg/mL
MIC (μg/mL) S. marcescens (Serratia marcescens; [4]): 12.5 µg/mL
MIC (μg/mL) E. cloacae (Enterobacter cloacae; [5]): 12.5 µg/mL
MIC (E. coli DH5α): 12.5 µg/mL
MIC (μg/mL) P. aeruginosa (Pseudomonas aeruginosa; [6]): 12.5 µg/mL
MIC (μg/mL) K. pneumonia (Klebsiella pneumonia; [7]): 25 µg/mL
MIC (μg/mL) A. hydrophila (Aeromonas hydrophila; [8]): 12.5 µg/mL
MIC (μg/mL) E. coli BL21 (E. coli BL21; [9]): 25 µg/mL
MIC (μg/mL) M. catarrhalis (Moraxella catarrhalis; [10]): 100 µg/mL

PRT29 (PCNCDVHKGFDPNCNKTNGQCHCKEFHYRPRGSDSCLP; listed as Homo sapiens)
MIC (μg/mL) P. vulgaris (Proteus vulgaris; [12]): 50 µg/mL
MIC (μg/mL) C. diversus (Citrobacter diversus; [13]): 25 µg/mL
MIC (μg/mL) P. mirabilis (Proteus mirabilis; [14]): 25 µg/mL
MIC (μg/mL) S. marcescens (Serratia marcescens; [15]): 12.5 µg/mL
MIC (μg/mL) E. cloacae (Enterobacter cloacae; [16]): 50 µg/mL
MIC (E. coli DH5α): 25 µg/mL
MIC (μg/mL) P. aeruginosa (Pseudomonas aeruginosa; [17]): 12.5 µg/mL
MIC (μg/mL) K. pneumonia (Klebsiella pneumonia; [18]): 25 µg/mL
MIC (μg/mL) A. hydrophila (Aeromonas hydrophila; [19]): 25 µg/mL
MIC (μg/mL) E. coli BL21 (E. coli BL21; [20]): 25 µg/mL
MIC (μg/mL) M. catarrhalis (Moraxella catarrhalis; [21]): 12.5 µg/mL

PRT1112 (GAPVCAPSPCLHDGACRDLFDAFACACGPGWEGPRCE; listed as Homo sapiens)
MIC P. vulgaris (Proteus vulgaris; [22]): 12.5 µg/mL
MIC C. diversus (Citrobacter diversus; [22]): 25 µg/mL
MIC P. mirabilis (Proteus mirabilis; [22]): 25 µg/mL
MIC S. marcescens (Serratia marcescens; [22]): 25 µg/mL
MIC E. cloacae (Enterobacter cloacae; [22]): 50 µg/mL
MIC (E. coli DH5α): 50 µg/mL
MIC P. aeruginosa (Pseudomonas aeruginosa; [22]): 12.5 µg/mL
MIC K. pneumonia (Klebsiella pneumonia; [22]): 25 µg/mL
MIC A. hydrophila (Aeromonas hydrophila; [22]): 12.5 µg/mL
MIC E. coli BL21 (E. coli BL21; [22]): 25 µg/mL
MIC M. catarrhalis (Moraxella catarrhalis; [22]): 12.5 µg/mL

PRT1014 (LRDFCSANPCVNGGVCLATYPQIQCHCPPGFEGHACE; listed as Homo sapiens)
MIC (Proteus vulgaris; [23]): 50 µg/mL
MIC (Citrobacter diversus; [24]): 12.5 µg/mL
MIC (Proteus mirabilis; [25]): 12.5 µg/mL
MIC (Serratia marcescens; [26]): 25 µg/mL
MIC (Enterobacter cloacae; [27]): 12.5 µg/mL
MIC (E. coli DH5α): 12.5 µg/mL
MIC (Pseudomonas aeruginosa; [28]): 50 µg/mL
MIC (Klebsiella pneumonia; [29]): 25 µg/mL
MIC (Aeromonas hydrophila; [30]): 50 µg/mL
MIC (E. coli BL21; [31]): 25 µg/mL
MIC (Moraxella catarrhalis; [32]): 50 µg/mL

PRT120 (CRPCQNGGLATVEGTHCLCHCKPYTFGAACE; listed as Homo sapiens)
MIC (μg/mL) P. vulgaris (Proteus vulgaris; [12]): 25 µg/mL
MIC (μg/mL) C. diversus (Citrobacter diversus; [13]): 12.5 µg/mL
MIC (μg/mL) P. mirabilis (Proteus mirabilis; [14]): 12.5 µg/mL
MIC (μg/mL) S. marcescens (Serratia marcescens; [15]): 12.5 µg/mL
MIC (μg/mL) E. cloacae (Enterobacter cloacae; [16]): 12.5 µg/mL
MIC (E. coli DH5α): 12.5 µg/mL
MIC (μg/mL) P. aeruginosa (Pseudomonas aeruginosa; [17]): 12.5 µg/mL
MIC (μg/mL) K. pneumonia (Klebsiella pneumonia; [18]): 12.5 µg/mL
MIC (μg/mL) A. hydrophila (Aeromonas hydrophila; [19]): 12.5 µg/mL
MIC (μg/mL) E. coli BL21 (E. coli BL21; [20]): 12.5 µg/mL
MIC (μg/mL) M. catarrhalis (Moraxella catarrhalis; [21]): 100 µg/mL

PRT973 (DLPDCSPSSCFNGGTCVDGVNSFSCLCRPGYTGAHCQ; listed as Homo sapiens)
MIC (Proteus vulgaris; [23]): 25 µg/mL
MIC (Citrobacter diversus; [24]): 50 µg/mL
MIC (Proteus mirabilis; [25]): 50 µg/mL
MIC (Serratia marcescens; [26]): 12.5 µg/mL
MIC (Enterobacter cloacae; [27]): 12.5 µg/mL
MIC (E. coli DH5α): 12.5 µg/mL
MIC (Pseudomonas aeruginosa; [28]): 12.5 µg/mL
MIC (Klebsiella pneumonia; [29]): 50 µg/mL
MIC (Aeromonas hydrophila; [30]): 25 µg/mL
MIC (E. coli BL21; [31]): 12.5 µg/mL
MIC (Moraxella catarrhalis; [32]): 12.5 µg/mL
